For one experiment, the target named is Coagulation factor X (Bos taurus, UniProt P00743). The experiment in a line: In vitro Enzyme Inhibitory activity measured against Coagulation factor X.
For the next experiment, the target named is Plasminogen (Homo sapiens, UniProt P00747). Kind of experiment: In vitro Enzyme Inhibitory activity measured against Plasmin.
In experiment [1] the target is Tissue-type plasminogen activator (Homo sapiens, UniProt P00750). Kind of experiment: In vitro Enzyme Inhibitory activity against t-PA(Tissue plasminogen activator).
For a further experiment, the target named is Prothrombin (Bos taurus, UniProt P00735). The experiment in a line: In vitro Enzyme Inhibitory activity measured against Thrombin.
The target in a further experiment is T1, Serine protease 1 (Bos taurus, UniProt P00760).
T1 sequence (P00760 whole entry): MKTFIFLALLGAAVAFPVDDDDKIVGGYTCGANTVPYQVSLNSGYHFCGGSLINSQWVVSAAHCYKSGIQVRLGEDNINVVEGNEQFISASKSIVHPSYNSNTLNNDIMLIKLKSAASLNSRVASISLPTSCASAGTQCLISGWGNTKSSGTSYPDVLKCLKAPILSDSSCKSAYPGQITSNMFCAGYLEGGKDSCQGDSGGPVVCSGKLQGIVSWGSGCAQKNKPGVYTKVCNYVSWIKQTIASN
Kind of experiment: In vitro Enzyme Inhibitory activity measured against Trypsin.

Experiment [2] can be described thus: Ratio of IC50 towards Plasmin to thrombin.
Experiment [3] can be described thus: Ratio of IC50 towards Tissue Plasminogen activator to thrombin.

pIC50: −log10 of the molar value. Square brackets hold non-standard residues; d marks the D form. Peptide text beside a SMILES is read from it. * marks the point of attachment. Tic = O=C(O)[C@@H]1Cc2ccccc2CN1; dPhg = N[C@@H](C(=O)O)c1ccccc1; Boc = CC(C)(C)OC(=O)*

Chain of Plasminogen (P00747 97-580 limits assumed): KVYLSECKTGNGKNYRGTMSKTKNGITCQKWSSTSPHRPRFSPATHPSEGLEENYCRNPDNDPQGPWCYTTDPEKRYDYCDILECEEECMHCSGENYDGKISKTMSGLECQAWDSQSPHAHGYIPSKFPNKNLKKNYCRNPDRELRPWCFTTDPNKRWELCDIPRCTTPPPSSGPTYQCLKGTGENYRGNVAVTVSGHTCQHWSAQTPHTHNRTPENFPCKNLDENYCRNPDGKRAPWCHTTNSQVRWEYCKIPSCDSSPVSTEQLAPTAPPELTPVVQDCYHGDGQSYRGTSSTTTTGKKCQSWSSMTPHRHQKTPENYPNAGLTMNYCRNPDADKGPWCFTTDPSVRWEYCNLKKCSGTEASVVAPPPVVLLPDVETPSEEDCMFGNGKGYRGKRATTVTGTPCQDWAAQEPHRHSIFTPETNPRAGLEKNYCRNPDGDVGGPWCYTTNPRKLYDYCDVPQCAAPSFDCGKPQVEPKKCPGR
Chain of Plasminogen (P00747 581-810 limits assumed): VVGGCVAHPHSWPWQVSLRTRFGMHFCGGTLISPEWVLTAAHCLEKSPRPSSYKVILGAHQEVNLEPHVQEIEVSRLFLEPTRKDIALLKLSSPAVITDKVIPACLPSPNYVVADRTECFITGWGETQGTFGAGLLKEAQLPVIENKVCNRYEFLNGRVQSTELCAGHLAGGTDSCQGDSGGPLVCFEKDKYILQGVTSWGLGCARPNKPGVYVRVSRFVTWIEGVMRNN
Chain of Tissue-type plasminogen activator (P00750 whole entry): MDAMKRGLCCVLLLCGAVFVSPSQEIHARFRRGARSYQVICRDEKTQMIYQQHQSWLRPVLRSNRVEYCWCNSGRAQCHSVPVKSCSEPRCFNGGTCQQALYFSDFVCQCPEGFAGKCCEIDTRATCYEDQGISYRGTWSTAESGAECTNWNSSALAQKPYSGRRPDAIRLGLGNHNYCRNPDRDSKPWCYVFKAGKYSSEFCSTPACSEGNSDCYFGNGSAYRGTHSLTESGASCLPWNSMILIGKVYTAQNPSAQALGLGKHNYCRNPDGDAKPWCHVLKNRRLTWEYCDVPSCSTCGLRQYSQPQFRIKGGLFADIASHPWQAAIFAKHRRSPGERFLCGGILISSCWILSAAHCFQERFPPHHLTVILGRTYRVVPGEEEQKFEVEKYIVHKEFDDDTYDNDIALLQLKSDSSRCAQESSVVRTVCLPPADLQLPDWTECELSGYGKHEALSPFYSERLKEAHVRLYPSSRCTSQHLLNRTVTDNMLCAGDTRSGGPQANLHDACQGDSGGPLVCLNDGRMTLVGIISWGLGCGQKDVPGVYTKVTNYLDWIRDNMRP
Chain of Coagulation factor X (P00743 41-180 limits assumed): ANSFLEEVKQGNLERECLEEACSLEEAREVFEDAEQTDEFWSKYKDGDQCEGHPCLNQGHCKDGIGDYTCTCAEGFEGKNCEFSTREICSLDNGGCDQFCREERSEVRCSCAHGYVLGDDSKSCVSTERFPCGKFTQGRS
Chain of Coagulation factor X (P00743 234-492 limits assumed): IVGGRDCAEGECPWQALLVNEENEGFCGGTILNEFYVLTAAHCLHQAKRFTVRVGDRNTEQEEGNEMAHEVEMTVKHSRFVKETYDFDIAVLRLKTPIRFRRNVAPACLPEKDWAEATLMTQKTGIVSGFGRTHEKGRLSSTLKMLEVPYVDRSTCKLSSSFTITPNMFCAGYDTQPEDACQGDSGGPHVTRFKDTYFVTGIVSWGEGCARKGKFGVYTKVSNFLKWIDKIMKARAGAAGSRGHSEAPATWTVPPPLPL

A word on the pIC50: it is −log10 of the IC50, conventionally taken in molar units. For `CN[C@H](Cc1ccccc1)C(=O)N1CCC[C@H]1C(=O)N[C@H](C=O)CCCN=C(N)N`, the pIC50 is 5.12 against Coagulation factor X; 6.17 against Plasminogen; 4.68 in experiment [1]; 8.05 against Prothrombin; 7.89 on Serine protease 1.
For the compound `CC(C)(C)OC(=O)N[C@H](Cc1ccccc1)C(=O)N1CCC[C@H]1C(=O)N[C@H](C=O)CCCN=C(N)N`, the pIC50 on Coagulation factor X was 5.80; in experiment [1], 6.02; against Prothrombin it was 7.35; against Serine protease 1, 7.85. In addition, the figures for the Selectivity in experiment [2] and in experiment [3] were 4 and 20, respectively.
In the case of `N=C(N)NCCC[C@@H](C=O)NC(=O)[C@@H]1CCCN1C(=O)[C@@H]1C[C@@H]2CCCC[C@@H]2CN1`, the pIC50 at Coagulation factor X was 5.48; against Plasminogen, 6.64; in experiment [1], 4.52; against Prothrombin, 7.34; against Serine protease 1, 8.04. Besides, the Selectivity in experiment [2] was found to be 5; in experiment [3], 650.
For the compound `CC(C)(C)OC(=O)N[C@@H](Cc1ccccc1)C(=O)N1CCCC[C@H]1C(=O)N[C@H](C=O)CCCNC(=N)N`, the pIC50 at Coagulation factor X is 4.49; against Plasminogen it was 5.09; in experiment [1], 4.32; against Prothrombin, 5.77; on Serine protease 1 it was 6.14.
As to `CC(C)(C)OC(=O)NC(Cc1ccccc1)C(=O)N1C(C(=O)N[C@H](C=O)CCCN=C(N)N)CCC1(C)C` (stereo in doubt) [listing 1 of 3 here], at Prothrombin, the pIC50 is 6.54.
For the compound `CC(C)(C)OC(=O)NC(Cc1ccccc1)C(=O)N1C(C(=O)N[C@H](C=O)CCCN=C(N)N)CCC1(C)C` (stereo in doubt) [listing 2 of 3 here], the pIC50 was 4.74 against Coagulation factor X, 4.96 against Plasminogen, less than 1.52 in experiment [1] and 6.77 against Serine protease 1.
`CN[C@H](Cc1ccccc1)C(=O)N1CCC[C@H]1C(=O)N[C@H](C=O)CCCNC(=N)N`: the Selectivity in experiment [2] worked out at 80; in experiment [3], 2400.
Take `C[C@](NC(=O)C(F)(F)F)(C(=O)N1CCC[C@H]1C(=O)N[C@H](C=O)CCCN=C(N)N)c1ccccc1`: the negative logarithm of the IC50 (pIC50) against Coagulation factor X was 3.72; on Plasminogen, 4.35; in experiment [1], less than 1.52; on Prothrombin it was 7.19; against Serine protease 1, 6.74. For the same compound, the values for the Selectivity in experiment [2] and in experiment [3] were 700 and greater than 50000, respectively.
Consider `CC(=O)N[C@@](C)(C(=O)N1CC[C@H]1C(=O)N[C@H](C=O)CCCN=C(N)N)c1ccccc1`, for which the Selectivity in experiment [2] came to 400; in experiment [3], 13000.
Regarding `CC(C)(C)OC(=O)N[C@H](Cc1ccccc1)C(=O)N1CC[C@H]1C(=O)N[C@H](C=O)CCCNC(=N)N`, the negative logarithm of the IC50 (pIC50) is 5.89 against Coagulation factor X, 6.44 on Plasminogen, 6.05 in experiment [1] and 8.01 against Serine protease 1.
For the compound `CC(C)(C)OC(=O)NC(Cc1ccccc1)C(=O)N1CSCC1C(=O)N[C@H](C=O)CCCN=C(N)N` (stereo in doubt) [listing 1 of 3 here], the Selectivity in experiment [2] is 4; in experiment [3] it was 260.
As for `CC(C)(C)OC(=O)N[C@@](C)(C(=O)N1CC[C@H]1C(=O)N[C@H](C=O)CCCN=C(N)N)c1ccccc1`, the negative logarithm of the IC50 (pIC50) against Coagulation factor X is 6.05; against Plasminogen it was 5.41; in experiment [1] it was 3.92; at Prothrombin, 7.66; against Serine protease 1, 7.82. Moreover, the Selectivity in experiment [2] amounted to 180; in experiment [3], 5500.
At Prothrombin, `CC(C)(C)OC(=O)NC(Cc1ccccc1)C(=O)N1CSCC1C(=O)N[C@H](C=O)CCCN=C(N)N` (stereo in doubt) [listing 2 of 3 here] had a pIC50 of 7.06.
For the compound `N=C(N)NCCC[C@@H](C=O)NC(=O)[C@@H]1CCCN1C(=O)[C@@H]1Cc2ccccc2CN1` (H-[Tic]-Pro-Arg-aldehyde), the pIC50 on Coagulation factor X is 6.19; in experiment [1] it was 3.37; at Prothrombin, 7.72; on Serine protease 1 it was 7.64.
Take `CC(C)(C)OC(=O)N[C@@H](C(=O)N1CC[C@H]1C(=O)N[C@H](C=O)CCCN=C(N)N)c1ccccc1`: the pIC50 against Coagulation factor X is 6.57; at Plasminogen, 6.82; in experiment [1], 5.18; at Serine protease 1, 7.96.
As to `CC(C)(C)OC(=O)N[C@@H](Cc1ccccc1)C(=O)N1CCCC[C@H]1C(=O)N[C@H](C=O)CCCN=C(N)N`, the Selectivity was determined as 5 in experiment [2] and 30 in experiment [3].
As to `C[C@](NC(=O)C(F)(F)F)(C(=O)N1CC[C@H]1C(=O)N[C@H](C=O)CCCN=C(N)N)c1ccccc1`, the pIC50 against Coagulation factor X is 4.01; against Plasminogen, 5.21; in experiment [1] it was 3.89; on Prothrombin, 7.92; on Serine protease 1 it was 8.02. Besides, the Selectivity in experiment [2] was determined as 510; in experiment [3] it was 11000.
For `CC(C)(C)OC(=O)NC(Cc1ccccc1)C(=O)N1C(C(=O)N[C@H](C=O)CCCN=C(N)N)CCC1(C)C` (stereo in doubt) [listing 3 of 3 here], the Selectivity in experiment [2] is 38; in experiment [3] it was greater than 50000.
As to `CN[C@@H](Cc1ccccc1)C(=O)N1CCC[C@H]1C(=O)N[C@](C)(C=O)CCCN=C(N)N`, the negative-log IC50 (pIC50) against Coagulation factor X is 2.74; on Plasminogen, 3.07; in experiment [1] it was less than 1.52; on Prothrombin it was 6.00; against Serine protease 1, 3.62. The figures for the Selectivity in experiment [2] and in experiment [3] were 850 and greater than 30000, respectively.
Turning to `CC(=O)N[C@@](C)(C(=O)N1CC[C@H]1C(=O)N[C@H](C=O)CCCNC(=N)N)c1ccccc1`, the pIC50 was 4.07 on Coagulation factor X; 5.12 against Plasminogen; 3.60 in experiment [1]; 7.72 on Prothrombin; 7.96 against Serine protease 1.
For `N=C(N)NCCC[C@@H](C=O)NC(=O)[C@@H]1CCCN1C(=O)[C@@H]1NCC[C@@H]2CCCC[C@@H]21`, the pIC50 against Coagulation factor X is 6.26; against Plasminogen it was 6.15; in experiment [1], 4.47; at Prothrombin, 7.72; on Serine protease 1, 7.28. Further, the Selectivity came to 40 in experiment [2] and 1800 in experiment [3].
On to `CC[C@](NC(=O)C(F)(F)F)(C(=O)N1CC[C@H]1C(=O)N[C@H](C=O)CCCN=C(N)N)c1ccccc1`, for which the pIC50 at Coagulation factor X was 4.49; against Plasminogen it was 5.37; at Serine protease 1, 8.28.
For `CC(C)(C)OC(=O)NC(Cc1ccccc1)C(=O)N1CSCC1C(=O)N[C@H](C=O)CCCN=C(N)N` (stereo in doubt) [listing 3 of 3 here], the pIC50 was 6.07 against Coagulation factor X, 6.47 against Plasminogen, 4.64 in experiment [1] and 8.06 at Serine protease 1.
Consider `CC(C)(C)OC(=O)NC(Cc1ccccc1)C(=O)N1CC[C@H]1C(=O)N[C@@H](CCCN=C(N)N)C(=O)O` (stereo in doubt), for which, at Prothrombin, the negative logarithm of the IC50 (pIC50) is 7.74. Also, the Selectivity was determined as 20 in experiment [2] and 50 in experiment [3].
As for `CC(C)(C)OC(=O)N[C@@H](C(=O)N1CCC[C@H]1C(=O)N[C@H](C=O)CCCN=C(N)N)c1ccccc1` (Boc-[dPhg]-Pro-Arg-aldehyde), the pIC50 against Coagulation factor X was 6.59; in experiment [1], 5.06; at Prothrombin, 7.80; at Serine protease 1, 8.01. Besides, the Selectivity was found to be 6 in experiment [2] and 540 in experiment [3].

Values taken from ChEMBL document CHEMBL1128179, “Structure-activity study of tripeptide thrombin inhibitors using alpha-alkyl amino acids and other conformationally constrained amino acid substitutions” (J Med Chem, 1995).
